Values of other authors as cited in US10264790B2, “Use of certain herbicide combinations based on iodosulfuron in teff plants” (BAYER CROPSCIENCE AKTIENGESELLSCHAFT, priority 2016, dated 2019).
Like-named read-outs stand apart in the source and are kept apart here.

Columns and labels:
[1] = tested on: teff; details: for selectivity in teff: with or without the safener
[2] = tested on: teff; details: for levels of weed control, teff safety and teff yields: postemergence applications; for injury to teff: applied postemergence
[3] = tested on: teff (Eragrostis tef); details: for yield reductions: field studies Kansas, teff; for injury on teff: in vivo
[4] = tested on: Phalaris paradoxa and Setaria pallidefusca; details: pot experiments; applied pre-emergence (diclofop-methyl only with a safener)
[5] = postemergence treatments, field studies Oregon 2009

COc1ccc(NC(=O)N(C)C)cc1Cl [metoxuron]
selectivity in teff ([1]; pot experiments): failed to show selectivity

COc1nc(C)nc(=NC(=O)NS(=O)(=O)c2ccccc2C(=O)O)[nH]1 [metsulfuron]
levels of weed control, teff safety and teff yields ([2]; field studies Oregon 2009): highest levels
teff injury (in words) [2, 5]: little or no teff injury

CCC/C(=N\OCC)C1=C(O)CC(CC(C)SCC)CC1=O (centres unmarked) [sethoxydim]
yield reductions [3]: 50%

COc1nc(C)nc(N(C)C(=O)NS(=O)(=O)c2ccccc2C(=O)O)n1 [tribenuron]
teff injury (in words) [2, 5]: little or no teff injury

CCc1cccc(CC)c1N(COC)C(=O)CCl [alachlor]
selectivity in teff ([1]; pot experiments): failed to show selectivity

COc1nc(C)nc(NC(=O)NS(=O)(=O)c2ccccc2CCC(F)(F)F)n1 [prosulfuron]
injury on teff [3]: less than 5%

COc1cc(OC)nc(NC(=O)NS(=O)(=O)c2cc(C(=O)O)ccc2CNS(C)(=O)=O)n1 [mesosulfuron, 2-[(4,6-dimethoxypyrimidin-2-ylcarbamoyl)sulfamoyl]-α-methanesulfonamido-p-toluic acid]
injury to teff ([2]; field studies Oregon 2009): 10%

CCc1cc(C)cc(CC)c1-c1c(OC(=O)C(C)(C)C)n2n(c1=O)CCOCC2 [pinoxaden]
injury to teff ([2]; field studies Oregon 2009): 70%

COc1cc(OC)nc(NC(=O)NS(=O)(=O)c2ncccc2C(=O)N(C)C)n1 [nicosulfuron]
injury to teff ([2]; field studies Oregon 2009): 20%

O=C(O)c1nc(Cl)ccc1Cl [clopyralid]
teff injury (in words) [2, 5]: little or no teff injury

CS(=O)(=O)c1ccc(C(=O)C2C(=O)CCCC2=O)c([N+](=O)[O-])c1 [mesotrione]
yield reductions [3]: 30%
injury to teff ([2]; field studies Oregon 2009): 63%
injury to the teff ([2]; applied preemergence, field studies Oregon 2009): 100%

Nc1c(Cl)c(F)nc(OCC(=O)O)c1Cl [fluroxypyr]
teff injury (in words) ([2]; in vivo): little or no teff injury

Cn1nc(-c2cc(OCC(=O)O)c(Cl)cc2F)c(Cl)c1OC(F)F [pyraflufen]
teff injury (in words) [2, 5]: little or no teff injury

CCC(CC)Nc1c([N+](=O)[O-])cc(C)c(C)c1[N+](=O)[O-] [pendimethalin]
selectivity in teff ([1]; pot experiments): failed to show selectivity

COc1nn(C(=O)NS(=O)(=O)c2ccccc2OC(F)(F)F)c(=O)n1C [flucarbazone]
teff injury (in words) [2, 5]: little or no teff injury

COc1nc(C)nc(NC(=O)NS(=O)(=O)c2ccccc2Cl)n1 [chlorsulfuron]
safety / tolerance on teff ([1]; in vivo): safe on teff
teff injury (in words) ([2]; in vivo): little or no teff injury
levels of weed control, teff safety and teff yields ([2]; field studies Oregon 2009): highest levels
control of Phalaris paradoxa and Setaria pallidefusca [4]: controlled both weed species

COc1cc(OC)nc(NC(=O)NS(=O)(=O)c2c(C(=O)O)c(Cl)nn2C)n1 [halosulfuron]
injury on teff [3]: less than 5%

COC(=O)C(C)Oc1ccc(Oc2ccc(Cl)cc2Cl)cc1 (centres unmarked) [Diclofop-methyl]
safety / tolerance on teff ([1]; pot experiments, applied pre-emergence (diclofop-methyl only with a safener)): tolerated by teff
control of Phalaris paradoxa and Setaria pallidefusca [4]: controlled both weeds

O=C(O)COc1ccc(Cl)cc1Cl [2,4-D, (2,4-dichlorophenoxy)acetic acid]
injury on teff [3]: less than 5%
